The text below walks through data of ChEMBL document CHEMBL2029340 (J Med Chem, 2012).

Assay [1] concerns Influenza A virus. The assay can be described thus: Antiviral activity against amantidine-resistant Influenza A virus A/WSN/33(H1N1) infected in MDCK cells assessed as inhibition of virus-induced cytopathic effects after 3 days by CCK-8 assay. To be noted: A/WSN/1933(H1N1), 72 h. The format is functional, organism-based. For orientation: Cytopathic effects are the visible damage that an infection or toxin causes in cultured cells.

Assay [2] has as its system Influenza A virus. Description: Antiviral activity against amantidine-resistant Influenza A virus A/WSN/33(H1N1) infected in MDCK cells assessed as reduction in plaque formation at 1 uM after 3 days by microscopy. The format is functional, organism-based. To be noted: A/WSN/1933(H1N1).
For assay [3], the system named is Influenza A virus. The assay can be described thus: Antiviral activity against amantidine-resistant Influenza A virus A/WSN/33(H1N1) infected in MDCK cells assessed as reduction in plaque formation at 0.3 uM after 3 days by microscopy. The format is functional, organism-based. To be noted: A/WSN/1933(H1N1).
Assay [4] relates to Influenza A virus. Description: Antiviral activity against amantidine-resistant Influenza A virus A/WSN/33(H1N1) infected in MDCK cells assessed as reduction in plaque formation after 3 days by microplate counting of infectious particles assay. The format is functional, organism-based. Particulars: A/WSN/1933(H1N1), 72 h.
Assay [5] relates to Influenza A virus. The assay can be described thus: Antiviral activity against tamiflu-resistant Influenza A virus A/WSN/33 (H1N1) harboring neuraminidase 274Y mutant infected in MDCK cells assessed as reduction of nucleoprotein antigen level after 3 days. The format is functional, organism-based, A/WSN/1933(H1N1).
Assay [6] deals with Influenza A virus. The assay can be described thus: Antiviral activity against Influenza A virus A/WSN/1933 (H1N1) harboring wild type nucleoprotein 52Y infected in MDCK cells assessed as reduction of nucleoprotein antigen level after 3 days. The format is functional, organism-based. To be noted: 72 h.
Assay [7] deals with Influenza A virus. The assay can be described thus: Antiviral activity against Influenza A virus A/WSN/1933 (H1N1) harboring nucleoprotein 52H mutant infected in MDCK cells assessed as reduction of nucleoprotein antigen level after 3 days. The format is functional, organism-based.
In assay [8] the test system is Influenza A virus. The assay can be described thus: Antiviral activity against amantidine-resistant Influenza A virus A/WSN/33(H1N1) infected in MDCK cells assessed as reduction in plaque formation after 3 days by microscopy. Particulars: A/WSN/1933(H1N1). The format is functional, organism-based.

Active and inactive are the calls of the source. The rule behind the calls is not given here. A value given as a limit tells only on which side of the number the result lay.

What is called IC50 is the midpoint of a concentration-inhibition curve. With `COc1cc([N+](=O)[O-])ccc1N1CCN(C(=O)c2c(C)nnn2-c2ccccc2OC)CC1`, the IC50 in assay [1] was greater than 50 µM.

On to `Cc1ccccc1-n1nnc(C)c1C(=O)N1CCN(c2ccc([N+](=O)[O-])cc2Cl)CC1`, for which the IC50 in assay [1] was determined as 2.4 µM.

Take `CC(=O)c1ccccc1-n1nnc(C)c1C(=O)N1CCN(c2ccc([N+](=O)[O-])cc2Cl)CC1`: the IC50 in assay [1] was found to be 13.7 µM.

With `COc1ccc(-n2nnc(C)c2C(=O)N2CCN(c3ccc([N+](=O)[O-])cc3Cl)CC2)cc1`, in assay [1], the IC50 turned out to be 5.61 µM.

On to `Cc1nnn(-c2ccccc2OC(C)C)c1C(=O)N1CCN(c2ccc([N+](=O)[O-])cc2Cl)CC1`, for which the IC50 in assay [1] stood at 8.42 µM.

`COc1cccc(-n2nnc(C)c2C(=O)N2CCN(c3ccc([N+](=O)[O-])cc3Cl)CC2)c1`: in assay [1], the IC50 came to 5.35 µM.

Turning to `Cc1nnn(-c2cccc(Cl)c2)c1C(=O)N1CCN(c2ccc([N+](=O)[O-])cc2Cl)CC1`, in assay [1], the IC50 is 4.89 µM.

As to `NC12CC3CC(CC(C3)C1)C2` [AMANTADINE], in assay [1], the IC50 is greater than 50 µM.

With `COc1ccccc1-n1nnc(C)c1C(=O)N1CCN(c2ccc([N+](=O)[O-])cc2)CC1`, in assay [1], the IC50 is 17 µM.

Turning to `COc1ccccc1-n1nnc(C)c1C(=O)N1CCN(c2ccccc2Cl)CC1`, in assay [1], the IC50 stood at 48.1 µM.

For the compound `COc1ccccc1-n1nnc(C)c1C(=O)N1CCN(c2ccc([N+](=O)[O-])cc2Cl)CC1`, the IC50 in assay [1] is 0.68 µM; in assay [4], 0.23 µM; in assay [5] it was 1.11 µM; in assay [6], 1.4 µM; in assay [7], greater than 50 µM. Besides, the result in assay [2] and in assay [3] was Active.

As for `Cc1onc(-c2ccccc2)c1C(=O)N1CCN(c2ccc([N+](=O)[O-])cc2Cl)CC1` [NUCLEOZIN], the 50% inhibitory concentration (IC50) was 0.32 µM in assay [1]; 0.1 µM in assay [4]; 0.66 µM in assay [5]; 0.49 µM in assay [6]; greater than 50 µM in assay [7]. In assay [8], the Activity entry is “Dose-dependent effect”. Moreover, the outcome in assay [3] was Active.

On to `COc1ccccc1-c1onc(C)c1C(=O)N1CCN(c2ccc([N+](=O)[O-])cc2Cl)CC1`, for which the IC50 in assay [1] was 0.71 µM.

Take `Cc1nnn(-c2ccc(Cl)cc2)c1C(=O)N1CCN(c2ccc([N+](=O)[O-])cc2Cl)CC1`: the IC50 in assay [1] came to 4.93 µM.

With `Cc1nnn(-c2ccccc2Cl)c1C(=O)N1CCN(c2ccc([N+](=O)[O-])cc2Cl)CC1`, the IC50 in assay [1] amounted to 1.2 µM.

In the case of `CCOc1ccccc1-n1nnc(C)c1C(=O)N1CCN(c2ccc([N+](=O)[O-])cc2Cl)CC1`, the IC50 in assay [1] turned out to be 3.22 µM.

Regarding `CCc1nnn(-c2ccccc2OC)c1C(=O)N1CCN(c2ccc([N+](=O)[O-])cc2Cl)CC1`, the IC50 in assay [1] is greater than 50 µM.

With `Cc1nnn(-c2ccccc2)c1C(=O)N1CCN(c2ccc([N+](=O)[O-])cc2Cl)CC1`, in assay [1], the IC50 is 3.13 µM.

On to `Cc1[nH]nc(-c2ccccc2)c1C(=O)N1CCN(c2ccc([N+](=O)[O-])cc2Cl)CC1`, for which the IC50 in assay [1] turned out to be 3.38 µM.

As for `COc1cccc(OC)c1-n1nnc(C)c1C(=O)N1CCN(c2ccc([N+](=O)[O-])cc2Cl)CC1`, in assay [1], the IC50 is 1.34 µM.

As to `COc1ccccc1-n1nnc(C)c1C(=O)N1CCN(c2ccccc2)CC1`, in assay [1], the IC50 was greater than 50 µM.

`Cc1noc(-c2ccccc2)c1C(=O)N1CCN(c2ccc([N+](=O)[O-])cc2Cl)CC1`: the IC50 in assay [1] turned out to be 4.83 µM.

Take `COc1ccccc1-n1nncc1C(=O)N1CCN(c2ccc([N+](=O)[O-])cc2Cl)CC1`: the IC50 in assay [1] is 8.36 µM.

As to `COc1ccccc1-c1ccccc1C(=O)N1CCN(c2ccc([N+](=O)[O-])cc2Cl)CC1`, in assay [1], the concentration for half-maximal inhibition (IC50) came out at 1.57 µM.

`Cc1[nH]nc(-c2ccccc2Cl)c1C(=O)N1CCN(c2ccc([N+](=O)[O-])cc2Cl)CC1`: the IC50 in assay [1] was found to be 0.72 µM.

As to `COc1ccccc1-n1nnc(C)c1C(=O)N1CCCN(c2ccc([N+](=O)[O-])cc2Cl)CC1`, the half-maximal inhibitory concentration (IC50) in assay [1] was 35.5 µM.

`Cc1nnn(-c2ccccc2O)c1C(=O)N1CCN(c2ccc([N+](=O)[O-])cc2Cl)CC1`: the IC50 in assay [1] was found to be 1.58 µM.

As for `O=C(c1ccccc1-c1ccccc1)N1CCN(c2ccc([N+](=O)[O-])cc2Cl)CC1`, the IC50 in assay [1] is 5.24 µM.
